Measurements taken from patent US10508109B2 (priority 2015, dated 2019).
Counter-ions that a name gives are not always drawn. Like-named read-outs stand apart in the source and are kept apart here.

Experiments:
[1] = system: A549; assay: Cell-based assay, anti-proliferative activity (Cell Counting Kit-8, 72 hours); details: Homo sapiens, read-out: IC50 (μM) A549
How it was run: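 Following seeding into 96-well microtiter plates, the cells receive candidate inhibitors, and cellular growth is quantified at the end of the exposure period. An IC50 is computed for each compound.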

[2] = system: CCD-18Co; assay: as above; details: Homo sapiens, read-out: IC50 (μM) CCD-18Co
How it was run: (§1)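 Cells were seeded in 96-well plates and exposed to the inhibitors for 72 hours, after which growth was measured with Cell Counting Kit-8. IC50 was derived from a serial dilution series of 0, 1.5625, 3.125, 6.25, 12.5, 25, 50 and 100 micro-M.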

[3] = system: HCT-116; assay: as above; details: Homo sapiens, read-out: IC50 (μM) HCT-116
How it was run: as §1

[4] = system: HFL1; assay: as above; details: Homo sapiens, read-out: IC50 (μM) HFL1
How it was run: as §1

[5] = system: PC14; assay: as above; details: Homo sapiens, read-out: IC50 (μM) PC14
How it was run: as §1

[6] = target: SUV39H2 (Homo sapiens (Human), UniProt Q9H5I1); details: read-out: IC50 (μM) Suv 39H2 assay
Sequence of SUV39H2 (Q9H5I1 whole entry): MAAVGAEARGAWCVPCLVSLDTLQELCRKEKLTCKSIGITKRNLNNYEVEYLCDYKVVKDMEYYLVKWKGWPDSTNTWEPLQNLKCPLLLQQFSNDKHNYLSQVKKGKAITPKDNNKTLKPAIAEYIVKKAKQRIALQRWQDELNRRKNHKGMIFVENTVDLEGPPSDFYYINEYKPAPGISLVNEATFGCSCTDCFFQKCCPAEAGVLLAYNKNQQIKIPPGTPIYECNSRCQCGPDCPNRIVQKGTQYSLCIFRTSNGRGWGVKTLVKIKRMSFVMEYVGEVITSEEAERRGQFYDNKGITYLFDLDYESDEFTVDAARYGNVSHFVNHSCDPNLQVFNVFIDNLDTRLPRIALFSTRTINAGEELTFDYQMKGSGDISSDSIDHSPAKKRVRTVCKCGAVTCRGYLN

[7] = A549 cells, 72 hours, Cell Counting Kit-8
[8] = CCD-18Co cells, 72 hours, Cell Counting Kit-8
[9] = HCT-116 cells, 72 hours, Cell Counting Kit-8
[10] = HFL1 cells, 72 hours, Cell Counting Kit-8
[11] = PC-14, PC14 cells, 72 hours, Cell Counting Kit-8
[12] = A549 cells, Cell Counting Kit-8, 72 hours
[13] = CCD-18Co cells, Cell Counting Kit-8, 72 hours
[14] = HCT-116 cells, Cell Counting Kit-8, 72 hours
[15] = HFL1 cells, Cell Counting Kit-8, 72 hours
[16] = PC-14, PC14 cells, Cell Counting Kit-8, 72 hours

## COc1cc(OC)c(-c2cn3ccc(OC4CCN(S(=O)(=O)c5cccs5)CC4)cc3n2)cc1Cl [Example 280, 2-(5-chloro-2,4-dimethoxyphenyl)-7-((1-(thiophen-2-ylsulfonyl)piperidin-4-yl)oxy)imidazo[1,2-a]pyridine]
[1]; [7]
  IC50: 2 µM
[2]; [8]
  IC50: 1.7 µM
[3]; [9]
  IC50: 1.9 µM
[4]; [10]
  IC50: 1.6 µM
[5]; [11]
  IC50: 0.8 µM
[6]; enzyme assay
  IC50: 0.0711 µM

## COc1cc(OC)c(-c2cn3ccc(N4CCN(S(C)(=O)=O)CC4)cc3n2)cc1Cl [Example 169, 2-(5-chloro-2,4-dimethoxyphenyl)-7-[4-(methylsulfonyl)piperazin-1-yl]imidazo[1,2-a]pyridine]
[1]; [12]
  IC50: 1.8 µM
[2]; [13]
  IC50: 2.8 µM
[3]; [14]
  IC50: 2.1 µM
[4]; [15]
  IC50: 4.7 µM
[5]; [16]
  IC50: 2.2 µM
[6]; enzyme assay
  IC50: 0.0101 µM

## COc1cc(OC)c(-c2cn3ccc(N4CCN(S(=O)(=O)C(C)C)CC4)cc3n2)cc1Cl [Example 178, 2-(5-chloro-2,4-dimethoxyphenyl)-7-[4-(isopropylsulfonyl)piperazin-1-yl]imidazo[1,2-a]pyridine]
[1]; [12]
  IC50: 1 µM
[2]; [13]
  IC50: 2.1 µM
[3]; [14]
  IC50: 1.5 µM
[4]; [15]
  IC50: 1.7 µM
[5]; [16]
  IC50: 0.74 µM
[6]; enzyme assay
  IC50: 0.0143 µM

## COc1cc(OCCCN(C)C)c(-c2cn3ccc(N4CCN(S(=O)(=O)N(C)C)CC4)cc3n2)cc1Cl [Example 196, 4-(2-{5-Chloro-2-[3-(dimethylamino)propoxy]-4-methoxyphenyl}imidazo[1,2-a]pyridin-7-yl)-N,N-dimethylpiperazine-1-sulfonamide]
[1]; [12]
  IC50: 2.1 µM
[2]; [13]
  IC50: 2.8 µM
[3]; [14]
  IC50: 2.2 µM
[4]; [15]
  IC50: 2.4 µM
[5]; [16]
  IC50: 1.9 µM
[6]; enzyme assay
  IC50: 0.0147 µM

## COc1cc(OC)c(-c2cn3ccc(N)cc3n2)cc1Cl [Example 151, 2-(5-chloro-2,4-dimethoxyphenyl)imidazo[1,2-a]pyridin-7-amine]
[1]; [12]
  IC50: 5.1 µM
[2]; [13]
  IC50: 2.4 µM
[3]; [14]
  IC50: 2.3 µM
[4]; [15]
  IC50: 1.9 µM
[5]; [16]
  IC50: 2.9 µM
[6]; enzyme assay
  IC50: 0.00827 µM

## COc1cc(OC)c(-c2cn3ccc(N4CCCC4)cc3n2)cc1C#N [Example 49, 2,4-dimethoxy-5-[7-(pyrrolidin-1-yl)imidazo[1,2-a]pyridin-2-yl]benzonitrile]
[1]; A549, 72 h
  IC50: 1.5 µM
[2]; CCD-18Co, 72 h
  IC50: 1.1 µM
[3]; HCT-116, 72 h
  IC50: 1.3 µM
[4]; HFL1, 72 h
  IC50: 0.8 µM
[5]; PC-14, 72 h
  IC50: 1.3 µM
[6]; enzyme assay
  IC50: 0.00371 µM

## COc1cc(OCCN)c(-c2cn3ccc(N4CCN(S(=O)(=O)C5CC5)CC4)cc3n2)cc1Cl [Example 234, 2-(4-chloro-2-(7-(4-(cyclopropylsulfonyl)piperazin-1-yl)imidazo[1,2-a]-pyridin-2-yl)-5-methoxyphenoxy)ethanamine]
[1]; [7]
  IC50: 10 µM
[2]; [8]
  IC50: 6.1 µM
[3]; [9]
  IC50: 5.3 µM
[4]; [10]
  IC50: 6.2 µM
[5]; [11]
  IC50: 6.4 µM
[6]; enzyme assay
  IC50: 0.0418 µM

## COc1cc(OC)c(-c2cn3ccc(N4CCN(S(=O)(=O)C5CCCC5)CC4)nc3n2)cc1Cl [Example 204, 2-(5-chloro-2,4-dimethoxyphenyl)-7-[4-(cyclopentylsulfonyl)-piperazin-1-yl]imidazo[1,2-a]pyrimidine]
[1]; [12]
  IC50: 0.75 µM
[2]; [13]
  IC50: 4.5 µM
[3]; [14]
  IC50: 1 µM
[4]; [15]
  IC50: 1.7 µM
[5]; [16]
  IC50: 0.6 µM
[6]; enzyme assay
  IC50: 0.0448 µM

## CCOP(=O)(CCN1CCCN(c2ccn3cc(-c4cc(Cl)c(OC)cc4OC)nc3c2)CC1)OCC [Example 210, diethyl (2-(4-(2-(5-chloro-2,4-dimethoxyphenyl)imidazo[1,2-a]pyridin-7-yl)-1,4-diazepan-1-yl)ethyl)phosphonate]
[1]; [12]
  IC50: 10 µM
[2]; [13]
  IC50: 5.5 µM
[3]; [14]
  IC50: 10 µM
[4]; [15]
  IC50: 7.2 µM
[5]; [16]
  IC50: 4.5 µM
[6]; enzyme assay
  IC50: 0.0029 µM

## COc1cc(OCCCN(C)C)c(-c2cn3ccc(N4CCN(S(=O)(=O)C(C)C)CC4)nc3n2)cc1Cl [Example 226, 3-(4-chloro-2-(7-(4-(isopropylsulfonyl)piperazin-1-yl)imidazo[1,2-a]-pyrimidin-2-yl)-5-methoxyphenoxy)-N,N-dimethylpropan-1-amine]
[1]; [7]
  IC50: 10 µM
[2]; [8]
  IC50: 10 µM
[3]; [9]
  IC50: 7.8 µM
[4]; [10]
  IC50: 8.9 µM
[5]; [11]
  IC50: 5.5 µM
[6]; enzyme assay
  IC50: 0.0655 µM

## COc1cc(OCC2CC2)c(-c2cn3ccc(N4CCCC4)cc3n2)cc1Cl [Example 82, 2-(5-chloro-2-(cyclopropylmethoxy)-4-methoxyphenyl)-7-(pyrrolidin-1-yl)imidazo[1,2-a]pyridine]
[1]; [12]
  IC50: 3.5 µM
[2]; [13]
  IC50: 3.8 µM
[3]; [14]
  IC50: 3.2 µM
[4]; [15]
  IC50: 2 µM
[5]; [16]
  IC50: 4.7 µM
[6]; enzyme assay
  IC50: 0.00538 µM

## COc1cc(OC)c(-c2cn3ccc(-c4ccc(C(=O)O)cc4)cc3n2)cc1Cl [Example 246, 4-(2-(5-chloro-2,4-dimethoxyphenyl)imidazo[1,2-a]pyridin-7-yl)benzoic acid]
[1]; [7]
  IC50: 10 µM
[2]; [8]
  IC50: 10 µM
[3]; [9]
  IC50: 10 µM
[4]; [10]
  IC50: 10 µM
[5]; [11]
  IC50: 10 µM
[6]; enzyme assay
  IC50: 0.0143 µM

## COc1cc(OC)c(-c2cn3ccc(NC(=O)[C@H](C)NC(=O)OC(C)(C)C)cc3n2)cc1Cl [Example 253, (S)-tert-butyl (1-((2-(5-chloro-2,4-dimethoxyphenyl)imidazo[1,2-a]-pyridin-7-yl)amino)-1-oxopropan-2-yl)carbamate]
[1]; [7]
  IC50: 10 µM
[2]; [8]
  IC50: 6.7 µM
[3]; [9]
  IC50: 10 µM
[4]; [10]
  IC50: 6.5 µM
[5]; [11]
  IC50: 6.9 µM
[6]; enzyme assay
  IC50: 0.0582 µM

## COc1cc(OC)c(-c2cn3ccc(N4CCC(CCN)CC4)cc3n2)cc1Cl [Example 72, 2-(1-(2-(5-chloro-2,4-dimethoxyphenyl)imidazo[1,2-a]pyridine-7-yl)piperidin-4-yl)ethanamine dihydrochloride]
[1]; A549, 72 h
  IC50: 5.3 µM
[2]; CCD-18Co, 72 h
  IC50: 7 µM
[3]; HCT-116, 72 h
  IC50: 4.9 µM
[4]; HFL1, 72 h
  IC50: 3.7 µM
[5]; PC-14, 72 h
  IC50: 2.5 µM
[6]
  IC50: 0.00875 µM

## COc1cc(OC)c(-c2cn3ccc(N4CCCN(C(=O)OC(C)(C)C)CC4)cc3n2)cc1Cl [Example 184, tert-butyl 4-[2-(5-chloro-2,4-dimethoxyphenyl)imidazo[1,2-a]pyridin-7-yl]-1,4-diazepane-1-carboxylate]
[1]; [12]
  IC50: 3.8 µM
[2]; [13]
  IC50: 4.9 µM
[3]; [14]
  IC50: 5.7 µM
[4]; [15]
  IC50: 2.2 µM
[5]; [16]
  IC50: 2.5 µM
[6]; enzyme assay
  IC50: 0.0285 µM

## COc1cc(OC)c(-c2cn3ccc(-c4ccc(C(=O)NC5CCNCC5)cc4)cc3n2)cc1Cl [Example 268, 4-(2-(5-chloro-2,4-dimethoxyphenyl)imidazo[1,2-a]pyridin-7-yl)-N-(piperidin-4-yl)benzamide]
[1]; [7]
  IC50: 4.3 µM
[2]; [8]
  IC50: 4.3 µM
[3]; [9]
  IC50: 2.8 µM
[4]; [10]
  IC50: 3.8 µM
[5]; [11]
  IC50: 3 µM
[6]; enzyme assay
  IC50: 0.0383 µM

## COc1cc(OC)c(-c2cn3ccc(N4CCC(NC(C)=O)CC4)cc3n2)cc1Cl [Example 124, N-{1-[2-(5-chloro-2,4-dimethoxyphenyl)imidazo[1,2-a]pyridin-7-yl]piperidin-4-yl}acetamide]
[1]; [12]
  IC50: 2.2 µM
[2]; [13]
  IC50: 3.1 µM
[3]; [14]
  IC50: 1.9 µM
[4]; [15]
  IC50: 3.1 µM
[5]; [16]
  IC50: 1.9 µM
[6]; enzyme assay
  IC50: 0.00327 µM

## COc1cc(OC)c(-c2cn3ccc(N4CCN(CCCN(C)C)CC4)cc3n2)cc1Br [Example 130, 3-(4-(2-(5-bromo-2,4-dimethoxyphenyl)imidazo[1,2-a]pyridin-7-yl)-piperazin-1-yl)-N,N-dimethylpropan-1-amine]
[1]; [12]
  IC50: 2.7 µM
[2]; [13]
  IC50: 6.6 µM
[3]; [14]
  IC50: 2.8 µM
[4]; [15]
  IC50: 4.6 µM
[5]; [16]
  IC50: 2.6 µM
[6]; enzyme assay
  IC50: 0.003 µM

## COc1cc(OC)c(-c2cn3ccc(N(C)CCN)cc3n2)cc1Cl [Example 54, N^1-(2-(5-chloro-2,4-dimethoxyphenyl)imidazo[1,2-a]yridine-7-yl)-N1-metylethane-1,2-diamine]
[1]; A549, 72 h
  IC50: 4.2 µM
[2]; CCD-18Co, 72 h
  IC50: 3.3 µM
[3]; HCT-116, 72 h
  IC50: 3.1 µM
[4]; HFL1, 72 h
  IC50: 2.5 µM
[5]; PC-14, 72 h
  IC50: 4.9 µM
[6]; enzyme assay
  IC50: 0.00585 µM

## COc1cc(OC)c(-c2cn3ccc(N4CC[C@H](NCc5cccnc5)C4)cc3n2)cc1Cl [Example 300, (S)-1-(2-(5-chloro-2,4-dimethoxyphenyl)imidazo[1,2-a]pyridin-7-yl)-N-(pyridin-3-ylmethyl)pyrrolidin-3-amine]
[1]; [7]
  IC50: 6 µM
[2]; [8]
  IC50: 6.1 µM
[3]; [9]
  IC50: 4.7 µM
[4]; [10]
  IC50: 7.1 µM
[5]; [11]
  IC50: 3.5 µM
[6]; enzyme assay
  IC50: 0.0127 µM

## COc1cc(OC)c(-c2cn3ccc(-c4ccc(C(=O)[C@H](C)N)cc4)cc3n2)cc1Cl [Example 274, (S)-2-amino-1-(4-(2-(5-chloro-2,4-dimethoxyphenyl)imidazo[1,2-a]-pyridin-7-yl)phenyl)propan-1-one hydrochloride]
[1]; A549, 72 h
  IC50: 1.2 µM
[2]; [8]
  IC50: 1.5 µM
[3]; [9]
  IC50: 1.6 µM
[4]; [10]
  IC50: 1.4 µM
[5]; [11]
  IC50: 0.74 µM
